Results taken from US9700047B2, “Macrocyclic picolinamides as fungicides” (Dow AgroSciences LLC, priority 2014, dated 2017).
Read-outs that look alike come from different tables or passages of the source.

Test system: Puccinia triticina; Synonym: Puccinia recondita f sp. tritici
Experiment: Wheat brown rust (PUCCRT) disease control on wheat seedlings
Type: in vivo
Settings: for pest or weed control at 121.5 g/ha: Low Volume activity at 121.5 g/H; for pest or weed control at 100 ppm: High Volume activity at 100 ppm
Experimental: All fungicides were evaluated using the aforementioned method for their activity vs. all target diseases, unless stated otherwise. Wheat leaf blotch and brown rust activity were also evaluated using track spray applications, in which case the fungicides were formulated as EC formulations, containing 0.1% Trycol 5941 in the spray solutions. Wheat plants (variety Yuma) were grown from seed in a greenhouse in 50% mineral soil/50% soil-less Metro mix until the first leaf was fully emerged, with 7-10 seedlings per pot. These plants were inoculated with an aqueous spore suspension of Puccinia triticina either prior to or after fungicide treatments. […] The plants were then transferred to a greenhouse set at 24° C. for disease to develop. Fungicide formulation, application and disease assessment followed the procedures as described in the Example A.

[1] = 24 h, 1 Day Protectant, read-out: PUCCRT 1DP % Control rating
[2] = 72 h, 3 Day Curative, read-out: PUCCRT 3DC % Control rating

| SMILES | pest or weed control at 121.5 g/ha [1] [%] | pest or weed control at 121.5 g/ha [2] [%] | pest or weed control at 100 ppm [1] [%] | pest or weed control at 100 ppm [2] [%] |
| --- | --- | --- | --- | --- |
| COc1ccnc(C(=O)N[C@H]2CCC[C@H](CCC(C)C)[C@@H](C3CCCC3)[C@H](C)OC2=O)c1OCOC(C)=O [Compound 42] | > 70 | < 70 | – | – |
| COc1ccnc(C(=O)N[C@H]2CCC[C@H](CCC(C)C)[C@@H](C3CCCC3)[C@H](C)OC2=O)c1OC(C)=O [Compound 43] | > 70 | < 70 | – | – |
| COc1ccnc(C(=O)N[C@H]2CCC[C@H](CCC(C)C)[C@@H](C3CCCC3)[C@H](C)OC2=O)c1OCOC(=O)C(C)C [Compound 44] | > 70 | < 70 | – | – |
| COc1ccnc(C(=O)N[C@H]2CCC[C@H](Cc3ccccc3)[C@@H](CCC(C)C)[C@H](C)OC2=O)c1OC(C)=O [Compound 45] | > 70 | < 70 | – | – |
| CCC[C@H]1CCC[C@H](NC(=O)c2nccc(OC)c2OC(C)=O)C(=O)O[C@@H](C)[C@@H]1Cc1ccc(F)cc1 [Compound 46] | > 70 | > 70 | – | – |
| COc1ccnc(C(=O)N[C@H]2CCC[C@H](Cc3ccccc3)[C@@H](CCC(C)C)[C@H](C)OC2=O)c1OCOC(C)=O [Compound 47] | > 70 | < 70 | – | – |
| CCC[C@H]1CCC[C@H](NC(=O)c2nccc(OC)c2OCOC(C)=O)C(=O)O[C@@H](C)[C@@H]1Cc1ccc(F)cc1 [Compound 48] | > 70 | > 70 | – | – |
| COc1ccnc(C(=O)N[C@H]2CCC[C@H](Cc3ccccc3)[C@@H](CCC(C)C)[C@H](C)OC2=O)c1OC(=O)C(C)C [Compound 49] | < 70 | < 70 | – | – |
| COc1ccnc(C(=O)N[C@H]2CCC[C@H](Cc3ccccc3)[C@@H](CCC(C)C)[C@H](C)OC2=O)c1OCOC(=O)C(C)C [Compound 50] | > 70 | < 70 | – | – |
| CCOCC(=O)OCOc1c(OC)ccnc1C(=O)N[C@H]1CCC[C@H](Cc2ccccc2)[C@@H](CCC(C)C)[C@H](C)OC1=O [Compound 51] | > 70 | < 70 | – | – |
| COc1ccnc(C(=O)N[C@H]2CCC[C@H](Cc3ccccc3)[C@@H](c3ccccc3)[C@H](C)OC2=O)c1OCOC(C)=O [Compound 52] | > 70 | < 70 | – | – |
| COc1ccnc(C(=O)N[C@H]2CCC[C@H](Cc3ccccc3)[C@@H](c3ccccc3)[C@H](C)OC2=O)c1OC(C)=O [Compound 53] | > 70 | < 70 | – | – |
| CCC[C@H]1CCC[C@H](NC(=O)c2nccc(OC)c2OCOC(C)=O)C(=O)O[C@@H](C)[C@@H]1c1ccccc1 [Compound 54] | > 70 | > 70 | – | – |
| CCC[C@H]1CCC[C@H](NC(=O)c2nccc(OC)c2OC(C)=O)C(=O)O[C@@H](C)[C@@H]1c1ccccc1 [Compound 55] | > 70 | > 70 | – | – |
| COc1ccnc(C(=O)N[C@H]2CCC[C@H](CCCc3ccccc3)[C@@H](CC(C)C)[C@H](C)OC2=O)c1OC(C)=O [Compound 56] | > 70 | < 70 | – | – |
| COc1ccnc(C(=O)N[C@H]2CCC[C@H](CCCc3ccccc3)[C@@H](Cc3ccc(OC(F)(F)F)cc3)[C@H](C)OC2=O)c1OC(C)=O [Compound 57] | < 70 | < 70 | – | – |
| COc1ccnc(C(=O)N[C@H]2CCC[C@H](CCCc3ccccc3)[C@@H](Cc3ccc(OC(F)(F)F)cc3)[C@H](C)OC2=O)c1OC(=O)C(C)C [Compound 58, 4-methoxy-2-(((3S,7S,8R,9S)-9-methyl-2-oxo-7-(3-phenylpropyl)-8-(4-(trifluoromethoxy)benzyl)oxonan-3-yl)carbamoyl)pyridin-3-yl isobutyrate] | < 70 | < 70 | – | – |
| COc1ccnc(C(=O)N[C@H]2CCC[C@H](CCCc3ccccc3)[C@@H](Cc3ccc(OC(F)(F)F)cc3)[C@H](C)OC2=O)c1OCOC(C)=O [Compound 59] | > 70 | < 70 | – | – |
| COc1ccnc(C(=O)N[C@H]2CCC[C@H](CC3CC3)[C@@H](Cc3ccccc3)[C@H](C)OC2=O)c1OC(C)=O [Compound 60] | > 70 | > 70 | – | – |
| COc1ccnc(C(=O)N[C@H]2CCC[C@H](CC3CC3)[C@@H](Cc3ccccc3)[C@H](C)OC2=O)c1OCOC(C)=O [Compound 61] | > 70 | > 70 | – | – |
| COc1ccnc(C(=O)N[C@H]2CCC[C@H](Cc3ccccc3)[C@@H](Cc3ccc(F)cc3)[C@H](C)OC2=O)c1OC(C)=O [Compound 62] | > 70 | < 70 | – | – |

| SMILES | pest or weed control at 121.5 g/ha [1] [%] | pest or weed control at 121.5 g/ha [2] [%] | pest or weed control at 100 ppm [1] [%] | pest or weed control at 100 ppm [2] [%] |
| --- | --- | --- | --- | --- |
| COc1ccnc(C(=O)N[C@H]2CCC[C@H](Cc3ccccc3)[C@@H](Cc3ccc(F)cc3)[C@H](C)OC2=O)c1OCOC(C)=O [Compound 63] | > 70 | < 70 | – | – |
| COc1ccnc(C(=O)N[C@H]2CCC[C@H](Cc3ccccc3)[C@@H](Cc3ccc(F)cc3)[C@H](C)OC2=O)c1OCOC(=O)C(C)C [Compound 64] | > 70 | < 70 | – | – |
| COc1ccnc(C(=O)N[C@H]2CCC[C@H](Cc3ccc(C(F)(F)F)cc3)[C@@H](Cc3ccc(OC(F)(F)F)cc3)[C@H](C)OC2=O)c1OCOC(C)=O [Compound 65] | < 70 | < 70 | – | – |
| CCOCC(=O)OCOc1c(OC)ccnc1C(=O)N[C@H]1CCC[C@H](Cc2ccc(C(F)(F)F)cc2)[C@@H](Cc2ccc(OC(F)(F)F)cc2)[C@H](C)OC1=O [Compound 66] | < 70 | < 70 | – | – |
| COc1ccnc(C(=O)N[C@H]2CCC[C@H](Cc3ccc(C(F)(F)F)cc3)[C@@H](Cc3ccc(OC(F)(F)F)cc3)[C@H](C)OC2=O)c1OC(C)=O [Compound 67] | < 70 | < 70 | – | – |
| COc1ccnc(C(=O)N[C@H]2CCC[C@H](Cc3ccccc3)[C@@H](Cc3ccc(OC(F)(F)F)cc3)[C@H](C)OC2=O)c1OCOC(C)=O [Compound 68] | < 70 | < 70 | – | – |
| CCOCC(=O)OCOc1c(OC)ccnc1C(=O)N[C@H]1CCC[C@H](Cc2ccccc2)[C@@H](Cc2ccc(OC(F)(F)F)cc2)[C@H](C)OC1=O [Compound 69] | < 70 | < 70 | – | – |
| COc1ccnc(C(=O)N[C@H]2CCC[C@H](CCCc3ccccc3)[C@@H](Cc3ccccc3)[C@H](C)OC2=O)c1OCOC(C)=O [Compound 70] | > 70 | < 70 | – | – |
| CCCC[C@@H]1[C@@H](Cc2ccccc2)CCC[C@H](NC(=O)c2nccc(OC)c2O)C(=O)O[C@H]1C [Compound 71, N-((3S,7R,8R,9S)-7-benzyl-8-butyl-9-methyl-2-oxooxonan-3-yl)-3-hydroxy-4-methoxypicolinamide] | – | – | > 70 | > 70 |
| CCCC[C@@H]1[C@@H](Cc2ccc(C(F)(F)F)cc2)CCC[C@H](NC(=O)c2nccc(OC)c2O)C(=O)O[C@H]1C [Compound 72] | – | – | > 70 | < 70 |
| COc1ccnc(C(=O)N[C@H]2CCC[C@H](CCC(C)C)[C@@H](Cc3ccccc3)[C@H](C)OC2=O)c1O [Compound 73] | – | – | > 70 | < 70 |
| COc1ccnc(C(=O)N[C@H]2CCC[C@H](Cc3ccccc3)[C@@H](Cc3ccccc3)[C@H](C)OC2=O)c1O [Compound 74] | – | – | > 70 | > 70 |
| COc1ccnc(C(=O)N[C@H]2CCC[C@H](Cc3ccccc3)[C@@H](C3CCCC3)[C@H](C)OC2=O)c1O [Compound 75] | – | – | > 70 | < 70 |
| COc1ccnc(C(=O)N[C@H]2CCC[C@H](Cc3ccc(Cl)cc3)[C@@H](CC(C)C)[C@H](C)OC2=O)c1O [Compound 76] | – | – | > 70 | < 70 |
| COc1ccnc(C(=O)N[C@H]2CCC[C@H](Cc3ccccc3)[C@@H](CCc3ccccc3)[C@H](C)OC2=O)c1O [Compound 78] | – | – | > 70 | < 70 |
| COc1ccnc(C(=O)N[C@H]2CCC[C@H](Cc3ccc(Cl)cc3)[C@@H](Cc3ccccc3)[C@H](C)OC2=O)c1O [Compound 79] | – | – | > 70 | < 70 |
| COc1ccnc(C(=O)N[C@H]2CCC[C@H](Cc3ccc(C(F)(F)F)cc3)[C@@H](CC(C)C)[C@H](C)OC2=O)c1O [Compound 80] | – | – | > 70 | < 70 |
| COc1ccnc(C(=O)N[C@H]2CCC[C@H](Cc3ccc(C(F)(F)F)cc3)[C@@H](Cc3ccccc3)[C@H](C)OC2=O)c1O [Compound 81] | – | – | > 70 | < 70 |
| CCC[C@H]1CCC[C@H](NC(=O)c2nccc(OC)c2O)C(=O)O[C@@H](C)[C@@H]1Cc1ccccc1 [Compound 82] | – | – | > 70 | > 70 |
| COc1ccnc(C(=O)N[C@H]2CCC[C@H](CCC(C)C)[C@@H](CCc3ccccc3)[C@H](C)OC2=O)c1O [Compound 83] | – | – | > 70 | < 70 |
| COc1ccnc(C(=O)N[C@H]2CCC[C@H](Cc3ccc(Cl)cc3)[C@@H](C3CCCC3)[C@H](C)OC2=O)c1O [Compound 84] | – | – | > 70 | < 70 |
